Results as given in patent publication US11891601B2, “Method to enhance the transcription regulation of SUPT4H on genes containing repetitive nucleotide sequences” (National Yang-Ming University, priority 2018, dated 2024).

System: HD-Drosophila expressing mutant HTT97Q
Assay: Rough eye phenotype in HD-Drosophila (Gmr-HTT97Q)
Assay type: in vivo, Drosophila melanogaster
Details: 10 μM 6CR in media, 4-day-old progenies
Protocol: The Gmr-ga14-UAS-HTT97Q/cyo line expressing HTT97Q under the control of Gmr-gal4 in compound eyes was provided by MT SU (National Taiwan Normal University, Taipei, Taiwan). Fly stock was maintained and crossed at 25° C. on a standard cornmeal yeast agar medium.
In each compound treatment experiment, 15 Gmr-ga14-UAS-HTT97Q/cyo male flies were crossed with 15 Gmr-ga14-UAS-HTT-97Q/cyo females in a vial containing 10 mL of media supplemented with the testing compound at a final concentration of 10 μM 6CR (Sigma) or/and 100 μM Tropolone (Sigma). 6-chloropurine riboside (6CR) is a chemical reagent that inhibits the activity of SUPT4H by preventing the complex formation of SUPT4H/SUPT5H (Patent No.: US2018/0064744A1). Parent flies were removed after 7 days, and 4-day-old progenies carrying one Gmr-ga14-UAS-HTT97Q allele were collected for eye morphology examination. […] In each treatment group, flies were analyzed and normalized with control flies. […]
Please refer to FIG. 8. […] After parent fly removal, the 4-day-old progenies carrying one Gmr-ga14-UAS-HTT97Q allele were collected and analyzed for eye morphology. […] 4-day-old progenies as described above were collected and analyzed the levels of mutant HTT by Western blotting. α-tubulin was included and served as a loading control. […]

## OC[C@H]1O[C@@H](n2cnc3c(Cl)ncnc32)[C@H](O)[C@@H]1O [6-chloropurine riboside (6CR), 6-chloropurine riboside]
  rescue of rough eye phenotype, 6CR alone: rescue effect
